{
  "source": "patent US11584735B2",
  "about": "“Solid forms of a plasma kallikrein inhibitor and salts thereof” (KALVISTA PHARMACEUTICALS LIMITED, priority 2017, dated 2023)",
  "key": {"Human KLK1": {"biological_target": "Human KLK1 (Homo sapiens (Human), UniProt P06870)", "sequence (P06870 25-262)": "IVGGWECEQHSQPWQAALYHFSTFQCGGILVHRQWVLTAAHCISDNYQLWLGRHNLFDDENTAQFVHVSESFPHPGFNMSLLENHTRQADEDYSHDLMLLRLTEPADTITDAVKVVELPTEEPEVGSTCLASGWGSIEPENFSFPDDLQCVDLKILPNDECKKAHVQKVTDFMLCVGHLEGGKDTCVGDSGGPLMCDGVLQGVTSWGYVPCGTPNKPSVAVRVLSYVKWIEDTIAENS", "experiment": "Determination of the IC50 for KLK1", "assay_type": "biochemical", "details": "25° C., substrate H-DVal-Leu-Arg-AFC", "procedure": "KLK1 inhibitory activity in vitro was determined using standard published methods (see e.g. Johansen et al., Int. J. Tiss. Reac. 1986, 8, 185; Shori et al., Biochem. Pharmacol., 1992, 43, 1209; Sturzebecher et al., Biol. Chem. Hoppe-Seyler, 1992, 373, 1025). Human KLK1 (Callbiochem) was incubated at 25° C. with the fluorogenic substrate H-DVal-Leu-Arg-AFC and various concentrations of the test compound. Residual enzyme activity (initial rate of reaction) was determined by measuring the change in optical absorbance at 410 nm and the IC50 value for the test compound was determined."}, "Human FXIa": {"biological_target": "Human FXIa (Homo sapiens (Human), UniProt P03951)", "sequence (P03951 388-625)": "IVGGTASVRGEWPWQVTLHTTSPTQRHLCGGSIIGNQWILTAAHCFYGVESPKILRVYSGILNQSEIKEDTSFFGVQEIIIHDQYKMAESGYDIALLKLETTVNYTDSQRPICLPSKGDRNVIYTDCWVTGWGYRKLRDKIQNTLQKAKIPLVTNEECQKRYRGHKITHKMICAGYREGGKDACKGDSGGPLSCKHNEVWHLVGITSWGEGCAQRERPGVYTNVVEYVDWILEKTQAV", "sequence (P03951 19-387 partner)": "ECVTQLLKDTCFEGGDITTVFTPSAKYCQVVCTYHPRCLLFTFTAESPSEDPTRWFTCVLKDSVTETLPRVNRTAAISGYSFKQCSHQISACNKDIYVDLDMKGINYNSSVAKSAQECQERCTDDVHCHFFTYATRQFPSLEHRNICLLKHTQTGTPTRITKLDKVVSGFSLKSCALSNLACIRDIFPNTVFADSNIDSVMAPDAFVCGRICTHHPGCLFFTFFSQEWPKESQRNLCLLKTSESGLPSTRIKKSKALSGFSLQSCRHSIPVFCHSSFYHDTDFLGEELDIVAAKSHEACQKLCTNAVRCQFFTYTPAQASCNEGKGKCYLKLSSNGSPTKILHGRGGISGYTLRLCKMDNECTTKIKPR", "experiment": "Determination of the % inhibition / IC50 for FXIa", "assay_type": "biochemical", "details": "25° C., substrate Z-Gly-Pro-Arg-AFC"}, "Human Factor XIIa": {"biological_target": "Human Factor XIIa (Homo sapiens (Human), UniProt P00748)", "sequence (P00748 373-615)": "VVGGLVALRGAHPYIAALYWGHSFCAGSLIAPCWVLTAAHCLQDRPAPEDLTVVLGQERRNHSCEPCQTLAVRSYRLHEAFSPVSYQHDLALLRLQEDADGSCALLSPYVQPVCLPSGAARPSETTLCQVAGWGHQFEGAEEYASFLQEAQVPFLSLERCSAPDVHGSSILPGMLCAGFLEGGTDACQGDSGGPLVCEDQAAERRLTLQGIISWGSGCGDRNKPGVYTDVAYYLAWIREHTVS", "experiment": "Determination of the IC50 for FXIIa", "assay_type": "biochemical", "details": "25° C., substrate H-DPro-Phe-Arg-AFC", "procedure": "Factor XIIa inhibitory activity in vitro was determined using standard published methods (see e.g. Shori et al., Biochem. Pharmacol., 1992, 43, 1209; Baeriswyl et al., ACS Chem. Biol., 2015, 10 (8) 1861; Bouckaert et al., European Journal of Medicinal Chemistry 110 (2016) 181). Human Factor XIIa (Enzyme Research Laboratories) was incubated at 25° C. with the fluorogenic substrate H-DPro-Phe-Arg-AFC and various concentrations of the test compound. Residual enzyme activity (initial rate of reaction) was determined by measuring the […] and the IC50 value for the test compound was determined."}, "trypsin": {"biological_target": "trypsin", "experiment": "Enzyme selectivity: trypsin", "assay_type": "biochemical, human", "details": "substrate at Km concentration"}, "[1]": {"experiment": "Metabolic stability in human liver microsomes", "assay_type": "in vitro ADME", "details": "human liver microsomes 1 mg/mL, 5 μM test compound, 37° C.", "procedure": "The metabolic stability was determined using standard published methods (Obach RS (1999) Drug Metab Dispos 27(11); 1350-135). Human liver microsomes (1 mg/mL; Corning) were incubated with 5 μM test compound at 37° C. on a shaking platform (150 rpm). Samples were taken at 0 and 60 min. The percentage test compound remaining at 60 minutes was determined by ratio of LCMS peak areas."}, "plasmin": {"biological_target": "plasmin (Homo sapiens (Human), UniProt P00747)", "sequence (P00747 581-810)": "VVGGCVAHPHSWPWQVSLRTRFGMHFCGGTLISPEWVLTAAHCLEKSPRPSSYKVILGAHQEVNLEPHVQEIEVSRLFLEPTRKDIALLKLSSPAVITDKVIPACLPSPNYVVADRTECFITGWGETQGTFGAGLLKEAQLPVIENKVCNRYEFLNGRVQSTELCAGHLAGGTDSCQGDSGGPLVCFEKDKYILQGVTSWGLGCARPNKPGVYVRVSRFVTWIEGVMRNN", "sequence (P00747 97-580 partner)": "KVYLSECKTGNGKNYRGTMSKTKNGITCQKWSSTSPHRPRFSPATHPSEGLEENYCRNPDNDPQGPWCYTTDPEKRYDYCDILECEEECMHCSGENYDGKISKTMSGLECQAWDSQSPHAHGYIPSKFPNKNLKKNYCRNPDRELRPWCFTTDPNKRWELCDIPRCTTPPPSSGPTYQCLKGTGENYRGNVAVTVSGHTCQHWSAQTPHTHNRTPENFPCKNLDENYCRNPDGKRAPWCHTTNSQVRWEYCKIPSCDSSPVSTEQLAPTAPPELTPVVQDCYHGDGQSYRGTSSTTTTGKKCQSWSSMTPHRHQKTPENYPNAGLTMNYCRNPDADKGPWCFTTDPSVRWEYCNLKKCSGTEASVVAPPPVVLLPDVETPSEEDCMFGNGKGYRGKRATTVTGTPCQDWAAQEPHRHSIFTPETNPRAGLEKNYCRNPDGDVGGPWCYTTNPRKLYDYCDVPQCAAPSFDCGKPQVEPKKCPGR", "details": "read-out: IC50 Plasmin; substrate at Km concentration"}, "thrombin": {"biological_target": "thrombin (Homo sapiens (Human), UniProt P00734)", "details": "read-out: IC50 Thrombin; substrate at Km concentration"}, "[2]": {"experiment": "In vitro permeability, Caco-2 model", "assay_type": "in vitro ADME", "details": "human, apical to basolateral, 37° C.", "procedure": "In vitro permeability was determined using the Caco-2 model for oral absorption. The methodology was adapted from standard published methods (Wang Z, Hop C. E., Leung K. H. and Pang J. (2000) J Mass Spectrom 35(1); 71-76). The Caco-2 monolayers were established in a Biocoat™ HTS fibrillar collagen 24 well multiwell insert system (1.0 μm, PET membrane, Corning 354803) in which 200,000 cells were seeded into each insert and maintained over 3 days before being utilised in the permeability assay. For the assay, 50 μM test compound is added to the apical side of the inserts and incubated for 1 hour at 37° C. on a shaking platform (120 rpm). Apical to basolateral transport was determined by measuring the test article in both compartments by LCMS following the 1 hour incubation. The integrity of the Caco-2 monolayers was confirmed by two methods, (i) comparison of pre- and post-experiment transepithelial electrical resistance (TEER) and, (ii) assessment of Lucifer Yellow flux."}, "diabetic rats": {"test_system": "diabetic rats", "details": "cited from earlier work"}, "rats": {"test_system": "rats", "details": "systemic administration; cited from earlier work"}, "blood": {"test_system": "blood", "details": "contacting blood with the inhibitor; cited from earlier work"}, "[3]": {"test_system": "intrinsic pathway of coagulation", "details": "in vitro; cited from earlier work"}, "[4]": {"test_system": "LPS-induced disseminated intravascular coagulation", "details": "cited from earlier work"}},
  "data": [
    {"molecule": "COCc1nn(Cc2ccc(Cn3cc(F)ccc3=O)cc2)cc1C(=O)NCc1nccc(OC)c1F", "note": "[Compound of Formula A, 1-({4-[(5-fluoro-2-oxopyridin-1-yl)methyl]phenyl}methyl)-N-[(3-fluoro-4-methoxypyridin-2-yl)methyl]-3-(methoxymethyl)pyrazole-4-carboxamide]", "values": [
      {"measurement": "IC50", "setting": "Human KLK1", "value": "> 40", "unit": "µM"},
      {"measurement": "IC50", "setting": "Human FXIa", "value": "> 40", "unit": "µM"},
      {"measurement": "IC50", "setting": "Human Factor XIIa", "value": "> 40", "unit": "µM"},
      {"measurement": "IC50", "setting": "trypsin", "value": "> 40", "unit": "µM"},
      {"measurement": "% remaining at 60 minutes", "setting": "[1]", "value": 25, "unit": "%"},
      {"measurement": "IC50", "setting": "plasmin", "value": "> 40", "unit": "µM"},
      {"measurement": "IC50", "setting": "thrombin", "value": "> 40", "unit": "µM"}
    ]},
    {"molecule": "COCc1nn(Cc2ccc(Cn3ccccc3=O)cc2)cc1C(=O)NCc1nccc(OC)c1F", "note": "[Example 41 of WO2016/083820, N-[(3-fluoro-4-methoxypyridin-2-yl)methyl]-3-(methoxymethyl)-1-({4-[(2-oxopyridin-1-yl)methyl]phenyl}methyl)pyrazole-4-carboxamide]", "values": [
      {"measurement": "IC50", "setting": "Human KLK1", "value": "> 40", "unit": "µM"},
      {"measurement": "IC50", "setting": "Human FXIa", "value": "> 40", "unit": "µM"},
      {"measurement": "IC50", "setting": "Human Factor XIIa", "value": "> 40", "unit": "µM"},
      {"measurement": "Papp at 1 h, 50 μM", "setting": "[2]", "value": 90, "unit": "nm/s"}
    ]},
    {"molecule": "N=C(N)c1ccc(CNC(=O)c2cnn(Cc3ccccc3)c2)cc1", "note": "[ASP-440]", "values": [
      {"measurement": "Effect on retinal vascular permeability and retinal blood flow abnormalities", "setting": "diabetic rats", "value": "ameliorated both retinal vascular permeability and retinal blood flow abnormalities"},
      {"measurement": "Hematoma expansion", "setting": "rats", "value": "reduced hematoma expansion"}
    ]},
    {"molecule": "Ecallantide", "values": [
      {"measurement": "Activated clotting time (ACT)", "setting": "blood", "value": "increase in activated clotting time"},
      {"measurement": "Contact activated induced coagulation", "setting": "[3]", "value": "delay contact activated induced coagulation"}
    ]},
    {"molecule": "Cl.NCC1CCC(C(=O)N[C@@H](Cc2ccccc2)C(=O)Nc2ccc(CC(=O)O)cc2)CC1", "note": "(stereo partly shown) [PKSI-527]", "values": [
      {"measurement": "Effect on platelet count, fibrinogen level and FDP level", "setting": "[4]", "value": "significantly suppressed the decrease in platelet count and fibrinogen level as well as the increase in FDP level"}
    ]}
  ]
}
